Measured values: ChEMBL document CHEMBL4417625, “Therapeutic compounds and methods” (2016)
Active and inactive are the calls of the source. The calls are words filed in the database; no cut-off is given here.

What was measured:
[1] = molecular target: T1, Regulator of G-protein signaling 17 (Homo sapiens) (UniProt Q9UGC6); assay: Inhibition of cell membrane translocation of N-terminal GFP tagged full length RGS17 (unknown origin) expressed in HEK293T cells co-expressing Galpha-o at 100 uM incubated for 10 mins by confocal microscopy; assay type: cell-based
T1 sequence (whole entry): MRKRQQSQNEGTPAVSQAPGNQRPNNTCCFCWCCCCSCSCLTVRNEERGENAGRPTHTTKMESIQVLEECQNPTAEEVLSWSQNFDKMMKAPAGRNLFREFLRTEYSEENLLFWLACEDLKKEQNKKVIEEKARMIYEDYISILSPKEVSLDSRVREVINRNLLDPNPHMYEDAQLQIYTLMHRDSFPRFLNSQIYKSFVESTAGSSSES

[2] = molecular target: T1, Regulator of G-protein signaling 17 (Homo sapiens); assay: Covalent binding affinity to N-terminal deficient RGS17 (unknown origin) assessed as covalent protein-compound adduct formation at 50 uM incubated for 1 hr by MALDI-TOF mass spectrometry
[3] = molecular target: T1, Regulator of G-protein signaling 17 (Homo sapiens); assay: Inhibition of RGS17 (unknown origin) assessed as reduction in RGS17 interaction with 6x-his-tagged biotinylated Galpha-o interaction at 100 uM by Alpha-screen assay
[4] = molecular target: T1, Regulator of G-protein signaling 17 (Homo sapiens); assay: Inhibition of RGS17 (unknown origin) assessed as reduction in RGS17 interaction with 6x-his-tagged biotinylated Galpha-o interaction at 100 uM followed by 3 times drug wash out with ASB buffer by Alpha-screen assay
[5] = molecular target: T1, Regulator of G-protein signaling 17 (Homo sapiens); assay: Inhibition of cell membrane translocation of N-terminal GFP tagged and N-terminal deficient RGS17 (unknown origin) expressed in HEK293T cells co-expressing Galpha-o assessed as induction of delocalization of RGS17deltaN to cytoplasm at 100 uM incubated for 10 mins by confocal microscopy; assay type: cell-based
[6] = molecular target: T1, Regulator of G-protein signaling 17 (Homo sapiens); assay: Inhibition of cell membrane translocation of N-terminal GFP tagged and N-terminal deficient RGS17 (unknown origin) expressed in HEK293T cells co-expressing Galpha-o assessed as induction of delocalization of RGS17deltaN to cytoplasm at 10 uM incubated for 10 mins by confocal microscopy; assay type: cell-based
[7] = molecular target: T1, Regulator of G-protein signaling 17 (Homo sapiens); assay: Binding affinity to RGS17 (unknown origin) assessed as shifting of protein melting temperature by Sypro-orange dye based differential scanning fluorimetry
[8] = molecular target: T1, Regulator of G-protein signaling 17 (Homo sapiens); assay: Inhibition of RGS17 (unknown origin) assessed as reduction in RGS17 interaction with 6x-his-tagged biotinylated Galpha-o interaction by Alpha-screen assay
[9] = molecular target: Guanine nucleotide-binding protein G(o) subunit alpha (Homo sapiens) (UniProt P09471); assay: Binding affinity to Galpha-o (unknown origin) assessed as shifting of protein melting temperature by Sypro-orange dye based differential scanning fluorimetry
Chain of Guanine nucleotide-binding protein G(o) subunit alpha (Homo sapiens) (P09471 2-354 limits assumed): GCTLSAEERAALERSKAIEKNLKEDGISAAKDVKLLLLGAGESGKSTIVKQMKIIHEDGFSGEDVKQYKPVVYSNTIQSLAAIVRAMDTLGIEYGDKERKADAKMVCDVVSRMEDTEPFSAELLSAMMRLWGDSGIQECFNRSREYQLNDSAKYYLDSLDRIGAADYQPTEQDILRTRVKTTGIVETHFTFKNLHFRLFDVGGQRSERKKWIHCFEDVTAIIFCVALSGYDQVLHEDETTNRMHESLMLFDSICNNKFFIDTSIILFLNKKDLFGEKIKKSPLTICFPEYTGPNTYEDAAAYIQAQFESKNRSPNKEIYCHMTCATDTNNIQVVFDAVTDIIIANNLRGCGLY

HEK-293T = assay: Cytotoxicity in HEK293T cells co-expressing Galpha-o at 100 uM incubated for 10 mins; assay type: cell-based; details: human

C[n+]1cc2c3c(ccc2c2ccc4cc5c(cc4c21)OCO5)OCO3
inhibition [1]: inactive
Activity [2]: inactive
inhibition [3]: inactive
inhibition [4]: Active
inhibition [5]: Active
inhibition [6]: Active
ΔTm [7]: 2.1 °C
inhibition [8]: Dose-dependent effect

O=c1c(-c2cc(O)c(O)c(O)c2)coc2cc(O)c(O)c(O)c12
Activity [2]: inactive
inhibition [3]: inactive
inhibition [4]: Active
inhibition [5]: Active
inhibition [6]: Active
ΔTm [7]: 1 °C
inhibition [8]: Dose-dependent effect

Cc1ccc(-n2sc(=O)n(Cc3ccc(F)cc3)c2=O)cc1
inhibition [5]: inactive

CC(C)=CCC[C@]1(C)C=Cc2c(O)c3c(c(CC=C(C)C)c2O1)O[C@]12C(=C[C@@H]4C[C@H]1C(C)(C)O[C@@]2(C/C=C(/C)C(=O)O)C4=O)C3=O [GAMBOGIC ACID]
Activity [2]: inactive
Activity [9]: Active
inhibition [3]: inactive
inhibition [4]: Active
inhibition [5]: inactive
Activity (HEK-293T): Toxic
Activity [7]: Active
inhibition [8]: Dose-dependent effect

CC1=C(O)C(=O)C=C2C1=CC=C1[C@@]2(C)CC[C@@]2(C)[C@@H]3C[C@](C)(C(=O)O)CC[C@]3(C)CC[C@]12C
Activity [2]: inactive
inhibition [3]: inactive
inhibition [4]: Active
inhibition [5]: Active
inhibition [6]: Active
ΔTm [7]: 1.4 °C
inhibition [8]: Dose-dependent effect
